Columns and labels:
[1] = acute toxicity: 50% lethal dose (LD50) by oral administration to mice; details: mouse, in vivo
blood sugar = experiment: blood sugar-lowering test: oral administration to mice prior to subcutaneous injection of glucose (one g/kg); format: in vivo; details: 100 mg/kg required; same conditions (mice, oral, s.c. glucose one g/kg)
blood-pressure = details: known cardiotonic compounds, U.S. Pat. 3869474 and Offenlegungsschrift 2420427; cited from earlier work
adrenergic β1 -receptor = details: known compounds, U.S. Pat. 3869474 and Offenlegungsschrift 2420427; cited from earlier work

Compound: COc1ccc(CCNCC(O)c2ccccc2OC)cc1OC (racemic) [dl-α-(3,4-dimethoxyphenethylaminomethyl)-2-methoxybenzylalcohol]
- LD50 [1]: ~580 mg/kg

Compound: N=C(N)NC(=N)NCCc1ccccc1 [Phenformin, 1-phenethylbiguanide]
- decrease in the blood sugar (blood sugar): ~30%

Compound: COc1cc(CCNCC(O)c2ccc(O)c(O)c2)cc(OC)c1OC (stereo not drawn) [α-(3,4,5-trimethoxyphenethylaminomethyl)-3,4-dihydroxybenzylalcohol]
- influence upon blood-pressure (blood-pressure): no substantial influence
- activation of adrenergic β1-receptor (adrenergic β1 -receptor): selective activation

Compound: COc1ccc(CCNCC(O)c2ccc(O)c(O)c2)cc1OC (stereo not drawn) [α-(3,4-dimethoxyphenethylaminomethyl)-3,4-dihydroxybenzylalcohol]
- influence upon blood-pressure (blood-pressure): no substantial influence
- activation of adrenergic β1-receptor (adrenergic β1 -receptor): selective activation

From patent US4131686A, “Novel benzylalcohol derivatives and processes for preparing the same” (Tanabe Seiyaku Co., Ltd., priority 1975, dated 1978)
